Data reported in patent US12187759B2, “TLR7 agonists” (Primmune Therapeutics, Inc., priority 2019, dated 2025).

Experiments:
[1] = test system: hPBMCs (Human Peripheral Blood Mononuclear Cells); assay: Induction of interferon-α in hPBMCs in vitro; assay type: cell-based; conditions: for Emax / minimal effective concentration: Homo sapiens, PBMC; for Emax: 24 h, peak IFNα2a as percentage of peak response of standard 2-Amino-7-(cyclopropylmethyl)-9-B-D-xylofuranosyl-7,9-dihydro-1H-purine-6,8-dione, averaged across donors, read-out: IFNrmax, Relative Maximal IFNα2a Production (%); for minimal effective concentration: minimal effective concentration for interferon-α production (generally at least 80 pg/ml above baseline), geometric mean across at least three donors, 24 hours, read-out: Weighted MEC
Description: Treatment of hPBMCs with a TLR7 agonist typically induces some production of interferon-α as well as lesser amounts of a variety of other cytokines and chemokines. A typical experiment uses hPBMCs isolated from a healthy donor and placed in replicate cell culture wells; typically 1.0-7.5×10^6 cells are placed in each well. A test compound is added and the cells are cultured for 24 hours at 37° C. in a humidified atmosphere containing 5% CO2 post-addition; untreated controls are included. Secreted interferon-α production is measured using an a multisubtype interferon-α ELISA kit like those from PBL Assay Sciences or specifically as IFNα2a as part of a panel of cytokines and chemokines using luminex methodologies.
The minimal effective concentration (MEC) is the minimum concentration in a dose response curve where a significant increase in interferon-α production (generally at least 80 pg/ml) is observed above baseline. MEC values for each compound are determined for at least three donors. The weighted MEC for each compound is the geometric mean of all individual MECs across all donors. Concentrations tested typically consist of a two-fold dilution series starting at 100 μM. In the calculation of weighted MEC, any individual MEC value greater the highest concentration tested is arbitrarily set to two times the highest concentration tested unless all MECs for a compound exceed this value. The maximal amount of IFNα2a for each donor is determined from dose dependence for each compound.
In order to normalize for variation in each hPBMC preparation, these values are first transformed by expressing as a percentage of peak response measured with a standard (2-Amino-7-(cyclopropylmethyl)-9-B-D-xylofuranosyl-7,9-dihydro-1H-purine-6,8-dione) and then averaging the results across all donors, this average referred to as IFNrmax.
IFNmax is the maximum amount of IFN observed at any concentration across the evaluated concentration range. MEC and IFNmax values for three select compound are shown for three donors (Table 3). The range of tested concentrations were 0.625-5 μM for Imiquimod, 3.125-100 μM for both Compound A and Compound 1, 12.5-100 μM for Compound 2.

[2] = target: T1, human TLR7 (Homo sapiens, UniProt Q9NYK1); assay: TLR7 reporter cell assay (HEK293 cells stably expressing human TLR7 with NF-κB-driven SEAP reporter); assay type: cell-based; conditions: 15-24 hours; for Emax at 500 µM: HEK293, 500 μM compound, SEAP activity (OD 650 nm) relative to 28.5 μM resiquimod, read-out: Response at 500 μM Compound as a Percent of Resiquimod Response; for EC50: fit of SEAP dose response, ymax from 28.5 μM resiquimod
T1 construct: host or cells: HEK293
T1 sequence (Q9NYK1 27-1049): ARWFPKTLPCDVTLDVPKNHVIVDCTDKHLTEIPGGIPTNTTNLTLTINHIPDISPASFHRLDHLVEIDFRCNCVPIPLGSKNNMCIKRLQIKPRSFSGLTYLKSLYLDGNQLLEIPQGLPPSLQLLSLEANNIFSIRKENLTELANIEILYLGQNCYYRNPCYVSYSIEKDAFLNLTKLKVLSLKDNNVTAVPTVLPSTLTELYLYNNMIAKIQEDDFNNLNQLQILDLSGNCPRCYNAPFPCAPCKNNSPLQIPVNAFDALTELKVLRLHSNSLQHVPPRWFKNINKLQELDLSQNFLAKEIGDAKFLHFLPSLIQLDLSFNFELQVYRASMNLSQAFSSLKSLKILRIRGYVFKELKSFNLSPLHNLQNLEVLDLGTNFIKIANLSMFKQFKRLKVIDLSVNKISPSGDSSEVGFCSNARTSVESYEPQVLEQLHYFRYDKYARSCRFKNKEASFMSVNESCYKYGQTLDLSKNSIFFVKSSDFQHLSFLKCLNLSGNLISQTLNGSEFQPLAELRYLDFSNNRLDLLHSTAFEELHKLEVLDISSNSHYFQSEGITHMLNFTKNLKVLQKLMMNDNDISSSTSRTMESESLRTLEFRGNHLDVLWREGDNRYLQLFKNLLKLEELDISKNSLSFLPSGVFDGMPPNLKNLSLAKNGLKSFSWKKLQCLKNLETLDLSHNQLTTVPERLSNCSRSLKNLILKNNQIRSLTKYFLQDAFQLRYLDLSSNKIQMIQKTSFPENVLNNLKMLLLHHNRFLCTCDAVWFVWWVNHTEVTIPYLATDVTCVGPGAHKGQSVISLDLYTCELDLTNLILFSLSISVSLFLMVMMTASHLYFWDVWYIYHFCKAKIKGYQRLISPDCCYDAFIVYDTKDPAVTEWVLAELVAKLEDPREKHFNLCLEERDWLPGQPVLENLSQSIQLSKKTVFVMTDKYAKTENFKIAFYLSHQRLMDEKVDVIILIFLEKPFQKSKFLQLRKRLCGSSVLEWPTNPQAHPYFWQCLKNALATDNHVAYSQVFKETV
Excerpt: The engagement of TLRs by cognate ligands triggers downstream signaling cascades, leading to the activation of NF-κB and other transcription factors which initiate various immunomodulatory effects. The human embryonic kidney cell line, HEK293, is essentially non-responsive to TLR agonists, but ectopic expression of TLRs in these cells allows cognate agonists to activate endogenous NF-κB. Accordingly, the HEK293-TLR-NF-κB inducible reporter system is used to assay TLR agonists.
HEK293 cell lines stably expressing human TLR7 or TLR8 together with an NF-κB-driven-secreted alkaline phosphatase (SEAP) reporter were invented at InvivoGen (San Diego, California, USA) and used to assess compounds of the present invention for TLR7 and TLR8 agonist activities. Cells were seeded at 2-5×10^4 cells/well in 96 well plates (200 μl/well) and treated with various concentrations of compound (10 μl) for 15-24 hours. SEAP activity was determined by measuring OD at 650 nm; the media used to culture the cell lines contains the reagents required for SEAP detection. The EC50 values in Table 1 are calculated from fitting the dose response of measured SEAP activity for each compound to the following equation: Y=ymax*c^nh/(EC50^nh+c^nh)+blank where Y is the experimentally measured OD650 at concentration c of test article, blank is the observed OD650 in the absence of TLR7 agonist, ymax is the difference between the measured OD650 in the presence of 28.5 μM resiquimod and the blank and values of EC50 and nh are determined by nonlinear least squares analysis. Resiquimod is a known TLR7 and TLR8 agonist.
Compound A is 5-amino-3-((2R,3R,5S)-3-hydroxy-5-((S)-1-hydroxypropyl)tetrahydrofuran-2-yl)thiazolo[4,5-d]pyrimidine-2,7(3H,6H)-dione)

Compound | Emax [1] | minimal effective concentration [1] | Emax at 500 µM [2] | EC50 [2] | further results
C#CC[C@H](O)[C@@H]1C[C@@H](O)[C@H](n2c(=O)n(CC#C)c3c(=O)[nH]c(N)nc32)O1 [Compound 35, 2-Amino-9-((2R,3R,5S)-3-hydroxy-5-((S)-1-hydroxybut-3-yn-1-yl)tetrahydrofuran-2-yl)-7-(prop-2-yn-1-yl)-7,9-dihydro-1H-purine-6,8-dione] | 207% | 3.1 µM | 91% | 114 µM | –
CC[C@H](O)[C@H]1O[C@@H](n2c(=O)n(CCC(F)(F)F)c3c(=O)[nH]c(N)nc32)[C@H](O)[C@H]1F [Compound 27, 2-Amino-9-((2R,3S,4R,5R)-4-fluoro-3-hydroxy-5-((S)-1-hydroxypropyl)tetrahydrofuran-2-yl)-7-(3,3,3-trifluoropropyl)-7,9-dihydro-1H-purine-6,8-dione] | 209% | ≤ 1.6 µM | 61% | 339 µM | –
CC[C@H](O)[C@@H]1C[C@@H](O)[C@H](n2c(=O)n(C[C@H](C)O)c3c(=O)[nH]c(N)nc32)O1 (single isomer, unassigned) [Compound 34] | 272% | 1.6 µM | 81% | 137 µM | –
C#CCn1c(=O)n([C@@H]2O[C@H]([C@@H](O)CO)C[C@H]2O)c2nc(N)[nH]c(=O)c21 [Compound 14, 2-Amino-9-((2R,3R,5S)-5-((S)-1,2-dihydroxyethyl)-3-hydroxytetrahydrofuran-2-yl)-7-(prop-2-yn-1-yl)-7,9-dihydro-1H-purine-6,8-dione] | ≤ 10% | > 50 µM | < 5% | – | –
C#CCn1c(=O)n([C@@H]2O[C@H]([C@@H](O)CC)C[C@H]2O)c2nc(N)[nH]c(=O)c21 [Compound 1, 2-amino-9-((2R,3R,5S)-3-hydroxy-5-((S)-1-hydroxypropyl)tetrahydrofuran-2-yl)-7-(prop-2-yn-1-yl)-7,9-dihydro-1H-purine-6,8-dione] | 316% | ≤ 2.9 µM | 67% | 103 µM | Donor 1 IFNmax ([1]; Donor 1, maximum IFN at any concentration of the evaluated range): 3775 pg/mL; Donor 2 MEC ([1]; Donor 2, interferon-α production): 6.25 µM; Donor 2 IFNmax ([1]; Donor 2, maximum IFN at any concentration of the evaluated range): 2129 pg/mL; Donor 3 IFNmax ([1]; Donor 3, maximum IFN at any concentration of the evaluated range): 5623 pg/mL; IFNmax of Compound 1 relative to Compound A ([1]; donor 1): 3.6 fold; IFNmax of Compound 1 relative to imiquimod ([1]; donor 1): 4.8 fold; IFNmax of Compound 1 relative to Compound A ([1]; donor 2): 4.4 fold; IFNmax of Compound 1 relative to imiquimod ([1]; donor 2): 11.0 fold; IFNmax of Compound 1 relative to Compound A ([1]; donor 3): 2.5 fold; IFNmax of Compound 1 relative to imiquimod ([1]; donor 3): 4.2 fold; potency (MEC) of Compound 1 relative to Compound 2 ([1]; in every case (Donors 1, 2 and 3)): ≥ 16 fold
C#CCn1c(=O)n([C@@H]2O[C@H](C(=O)NC)C[C@H]2O)c2nc(N)[nH]c(=O)c21 [Compound 42, (2S,4R,5R)-5-(2-Amino-6,8-dioxo-7-(prop-2-yn-1-yl)-1,6,7,8-tetrahydro-9H-purin-9-yl)-4-hydroxy-N-methyltetrahydrofuran-2-carboxamide] | ≤ 10% | > 50 µM | < 5% | – | –
C#CCn1c(=O)n([C@@H]2O[C@H](C(=O)OC)C[C@H]2O)c2nc(N)[nH]c(=O)c21 [Compound 39, Methyl (2S,4R,5R)-5-(2-amino-6,8-dioxo-7-(prop-2-yn-1-yl)-1,6,7,8-tetrahydro-9H-purin-9-yl)-4-hydroxytetrahydrofuran-2-carboxylate] | ≤ 10% | > 50 µM | < 5% | – | –
C#CCn1c(=O)n([C@@H]2O[C@H]([C@H](C)O)C[C@H]2O)c2nc(N)[nH]c(=O)c21 [Compound 9, 2-Amino-9-((2R,3R,5S)-3-hydroxy-5-((S)-1-hydroxyethyl)tetrahydrofuran-2-yl)-7-(prop-2-yn-1-yl)-7,9-dihydro-1H-purine-6,8-dione] | 191% | 6.2 µM | 58% | 182 µM | –
CC[C@H](O)[C@@H]1C[C@@H](O)[C@H](n2c(=O)n(CC3CC3)c3c(=O)[nH]c(N)nc32)O1 [Compound 4, 2-Amino-7-(cyclopropylmethyl)-9-((2R,3R,5S)-3-hydroxy-5-((S)-1-hydroxypropyl)tetrahydrofuran-2-yl)-7,9-dihydro-1H-purine-6,8-dione] | 226% | 12.5 µM | 81% | 132 µM | –
C#CCn1c(=O)n([C@@H]2O[C@H](C(N)=O)C[C@H]2O)c2nc(N)[nH]c(=O)c21 [Compound 41, (2S,4R,5R)-5-(2-Amino-6,8-dioxo-7-(prop-2-yn-1-yl)-1,6,7,8-tetrahydro-9H-purin-9-yl)-4-hydroxytetrahydrofuran-2-carboxamide] | ≤ 10% | > 50 µM | < 5% | – | –
C#CCn1c(=O)n([C@@H]2O[C@H](C(C)(C)O)C[C@H]2O)c2nc(N)[nH]c(=O)c21 [Compound 18, 2-Amino-9-((2R,3R,5S)-3-hydroxy-5-(2-hydroxypropan-2-yl)tetrahydrofuran-2-yl)-7-(prop-2-yn-1-yl)-7,9-dihydro-1H-purine-6,8-dione] | ≤ 10% | > 50 µM | < 5% | – | –
